Reference: patent publication US20150209315A1 (Cumberland Pharmaceuticals, priority 2009, published 2015)

Experiments:
[1] = test system: post-operative adult patients; assay: Example 1: patient self-assessment of pain, VAS with movement; type: in vivo, human; parameters: key to VAS Score measured with Movement (median): VAS 0-10: 0 = no pain, 10 = intense pain
Procedure: Pain was measured by the patient's self-assessment using a Visual Analog Scale (VAS) from 0-10 with 0 being no pain and 10 being intense pain. This was measured both at rest and with movement. […] […] To account for the missing pain assessments, two missing value approaches as described in the statistical analysis plan were used to impute values. To determine the difference in overall pain at differing time-points, the area under the VAS pain curve during the first 24 hours, between 6 and 24 hours and between 12 and 24 hours were analyzed.

[2] = test system: patients undergoing orthopedic surgical procedures; assay: Example 3: morphine use post-surgery through study hour 28; type: in vivo, human; settings: for Morphine Requirement, LS Means Difference (95% CI): 800 mg vs placebo; for Morphine Requirement, LS Means Difference (95% CI) / Morphine Requirement, LS Means (SE) / Morphine Requirement, Mean (SD) / Morphine Requirement, Median: Post-Op-28 hours; for decrease in the mean morphine used in the postoperative period / Morphine Requirement, LS Means (SE) / Morphine Requirement, Mean (SD) / Morphine Requirement, Median: 800 mg
patients = assay: Safety in all clinical studies conducted to date; type: in vivo, human; settings: for postoperative GI bleeding or renal complications: up to 5 days of treatment, abdominal and orthopedic surgical procedures
[3] = cited from earlier work

## CC(C)Cc1ccc(C(C)C(=O)O)cc1 (stereo not drawn) [Ibuprofen, 2-(4-isobutylphenyl) propionic acid]
[1]; 400 mg, EEP, 1-Hour
  VAS Score measured with Movement (median): 7.5
  VAS Score measured with Movement, % Reduction vs Placebo: 6.2%
[1]; 400 mg, EEP, 2-Hour
  VAS Score measured with Movement (median): 7.2
  VAS Score measured with Movement, % Reduction vs Placebo: −1.4%
[1]; 400 mg, EEP, 3-Hour
  VAS Score measured with Movement (median): 6.2
  VAS Score measured with Movement, % Reduction vs Placebo: −3.3%
[1]; 400 mg, EEP, 6-Hour
  VAS Score measured with Movement (median): 5.7
  VAS Score measured with Movement, % Reduction vs Placebo: −14.0%
[1]; 400 mg, EEP, 9-Hour
  VAS Score measured with Movement (median): 4.8
  VAS Score measured with Movement, % Reduction vs Placebo: 4.0%
[1]; 400 mg, EEP, 12-Hour
  VAS Score measured with Movement (median): 4.5
  VAS Score measured with Movement, % Reduction vs Placebo: 10.0%
[1]; 400 mg, EEP, 15-Hour
  VAS Score measured with Movement (median): 4.0
  VAS Score measured with Movement, % Reduction vs Placebo: 20.0%
[1]; 400 mg, EEP, 18-Hour
  VAS Score measured with Movement (median): 4.3
  VAS Score measured with Movement, % Reduction vs Placebo: 14.0%
[1]; 400 mg, EEP, 21-Hour
  VAS Score measured with Movement (median): 4.0
  VAS Score measured with Movement, % Reduction vs Placebo: 20.0%
[1]; 400 mg, EEP, 24-Hour
  VAS Score measured with Movement (median): 5.0
  VAS Score measured with Movement, % Reduction vs Placebo: −13.6%
[1]; 400 mg, EEP, 27-Hour
  VAS Score measured with Movement (median): 4.6
  VAS Score measured with Movement, % Reduction vs Placebo: −2.2%
[1]; 400 mg, EEP, 30-Hour
  VAS Score measured with Movement (median): 4.0
  VAS Score measured with Movement, % Reduction vs Placebo: 2.4%
[1]; 400 mg, EEP, 33-Hour
  VAS Score measured with Movement (median): 3.9
  VAS Score measured with Movement, % Reduction vs Placebo: −2.6%
[1]; 400 mg, EEP, 36-Hour
  VAS Score measured with Movement (median): 3.6
  VAS Score measured with Movement, % Reduction vs Placebo: 7.7%
[1]; 400 mg, EEP, 39-Hour
  VAS Score measured with Movement (median): 3.1
  VAS Score measured with Movement, % Reduction vs Placebo: 8.8%
[1]; 400 mg, EEP, 42-Hour
  VAS Score measured with Movement (median): 3.3
  VAS Score measured with Movement, % Reduction vs Placebo: 5.7%
[1]; 400 mg, EEP, 45 Hour
  VAS Score measured with Movement (median): 3.3
  VAS Score measured with Movement, % Reduction vs Placebo: −6.5%
[1]; 400 mg, EEP, 48-Hour
  VAS Score measured with Movement (median): 3.2
  VAS Score measured with Movement, % Reduction vs Placebo: −33.3%
[1]; 400 mg, ITT, 1-Hour
  VAS Score measured with Movement (median): 7.5
  VAS Score measured with Movement, % Reduction vs Placebo: 6.2%
[1]; 400 mg, ITT, 2-Hour
  VAS Score measured with Movement (median): 7.4
  VAS Score measured with Movement, % Reduction vs Placebo: −1.4%
[1]; 400 mg, ITT, 3-Hour
  VAS Score measured with Movement (median): 6.3
  VAS Score measured with Movement, % Reduction vs Placebo: 0.0%
[1]; 400 mg, ITT, 6-Hour
  VAS Score measured with Movement (median): 5.7
  VAS Score measured with Movement, % Reduction vs Placebo: 0.0%
[1]; 400 mg, ITT, 9-Hour
  VAS Score measured with Movement (median): 4.7
  VAS Score measured with Movement, % Reduction vs Placebo: 9.6%
[1]; 400 mg, ITT, 12-Hour
  VAS Score measured with Movement (median): 4.5
  VAS Score measured with Movement, % Reduction vs Placebo: 10.0%
[1]; 400 mg, ITT, 15-Hour
  VAS Score measured with Movement (median): 3.9
  VAS Score measured with Movement, % Reduction vs Placebo: 22.0%
[1]; 400 mg, ITT, 18-Hour
  VAS Score measured with Movement (median): 4.3
  VAS Score measured with Movement, % Reduction vs Placebo: 14.0%
[1]; 400 mg, ITT, 21-Hour
  VAS Score measured with Movement (median): 4.1
  VAS Score measured with Movement, % Reduction vs Placebo: 16.3%
[1]; 400 mg, ITT, 24-Hour
  VAS Score measured with Movement (median): 4.6
  VAS Score measured with Movement, % Reduction vs Placebo: −2.2%
[1]; 400 mg, ITT, 27 Hour
  VAS Score measured with Movement (median): 4.6
  VAS Score measured with Movement, % Reduction vs Placebo: −4.5%
[1]; 400 mg, ITT, 30-Hour
  VAS Score measured with Movement (median): 4.0
  VAS Score measured with Movement, % Reduction vs Placebo: 0.0%
[1]; 400 mg, ITT, 33-Hour
  VAS Score measured with Movement (median): 3.8
  VAS Score measured with Movement, % Reduction vs Placebo: 0.0%
[1]; 400 mg, ITT, 36-Hour
  VAS Score measured with Movement (median): 3.6
  VAS Score measured with Movement, % Reduction vs Placebo: 10.0%
[1]; 400 mg, ITT, 39-Hour
  VAS Score measured with Movement (median): 3.1
[1]; 400 mg, ITT, 42-Hour
  VAS Score measured with Movement (median): 3.3
  VAS Score measured with Movement, % Reduction vs Placebo: 2.9%
[1]; 400 mg, ITT, 45-Hour
  VAS Score measured with Movement (median): 3.3
  VAS Score measured with Movement, % Reduction vs Placebo: −6.5%
[1]; 400 mg, ITT, 48-Hour
  VAS Score measured with Movement (median): 3.2
  VAS Score measured with Movement, % Reduction vs Placebo: −39.1%
[1]; 800 mg, EEP, 1-Hour
  VAS Score measured with Movement (median): 7.8
  VAS Score measured with Movement, % Reduction vs Placebo: 2.5%
[1]; 800 mg, EEP, 2-Hour
  VAS Score measured with Movement (median): 7.0
  VAS Score measured with Movement, % Reduction vs Placebo: 1.4%
[1]; 800 mg, EEP, 3-Hour
  VAS Score measured with Movement (median): 6.1
  VAS Score measured with Movement, % Reduction vs Placebo: −1.7%
[1]; 800 mg, EEP, 6-Hour
  VAS Score measured with Movement (median): 5.6
  VAS Score measured with Movement, % Reduction vs Placebo: −12.0%
[1]; 800 mg, EEP, 9-Hour
  VAS Score measured with Movement (median): 4.8
  VAS Score measured with Movement, % Reduction vs Placebo: 4.0%
[1]; 800 mg, EEP, 12-Hour
  VAS Score measured with Movement (median): 4.4
[1]; 800 mg, EEP, 15-Hour
  VAS Score measured with Movement (median): 4.2
  VAS Score measured with Movement, % Reduction vs Placebo: 16.0%
[1]; 800 mg, EEP, 18-Hour
  VAS Score measured with Movement (median): 4.0
  VAS Score measured with Movement, % Reduction vs Placebo: 20.0%
[1]; 800 mg, EEP, 21-Hour
  VAS Score measured with Movement (median): 3.7
  VAS Score measured with Movement, % Reduction vs Placebo: 26.0%
[1]; 800 mg, EEP, 24-Hour
  VAS Score measured with Movement (median): 3.6
  VAS Score measured with Movement, % Reduction vs Placebo: 18.2%
[1]; 800 mg, EEP, 27-Hour
  VAS Score measured with Movement (median): 3.7
  VAS Score measured with Movement, % Reduction vs Placebo: 17.8%
[1]; 800 mg, EEP, 30-Hour
  VAS Score measured with Movement (median): 3.6
[1]; 800 mg, EEP, 33-Hour
  VAS Score measured with Movement (median): 3.6
  VAS Score measured with Movement, % Reduction vs Placebo: 5.3%
[1]; 800 mg, EEP, 36-Hour
  VAS Score measured with Movement (median): 3.4
[1]; 800 mg, EEP, 39-Hour
  VAS Score measured with Movement (median): 3.8
  VAS Score measured with Movement, % Reduction vs Placebo: −11.8%
[1]; 800 mg, EEP, 42-Hour
  VAS Score measured with Movement (median): 3.2
  VAS Score measured with Movement, % Reduction vs Placebo: 8.6%
[1]; 800 mg, EEP, 45 Hour
  VAS Score measured with Movement (median): 2.8
  VAS Score measured with Movement, % Reduction vs Placebo: 9.7%
[1]; 800 mg, EEP, 48-Hour
  VAS Score measured with Movement (median): 2.1
[1]; 800 mg, ITT, 1-Hour
  VAS Score measured with Movement (median): 7.3
  VAS Score measured with Movement, % Reduction vs Placebo: 8.8%
[1]; 800 mg, ITT, 2-Hour
  VAS Score measured with Movement (median): 6.8
  VAS Score measured with Movement, % Reduction vs Placebo: 6.8%
[1]; 800 mg, ITT, 3-Hour
  VAS Score measured with Movement (median): 6.0
  VAS Score measured with Movement, % Reduction vs Placebo: 4.8%
[1]; 800 mg, ITT, 6-Hour
  VAS Score measured with Movement (median): 5.3
  VAS Score measured with Movement, % Reduction vs Placebo: 7.0%
[1]; 800 mg, ITT, 9-Hour
  VAS Score measured with Movement (median): 4.6
[1]; 800 mg, ITT, 12-Hour
  VAS Score measured with Movement (median): 4.3
  VAS Score measured with Movement, % Reduction vs Placebo: 14.0%
[1]; 800 mg, ITT, 15-Hour
  VAS Score measured with Movement (median): 4.2
  VAS Score measured with Movement, % Reduction vs Placebo: 16.0%
[1]; 800 mg, ITT, 18-Hour
  VAS Score measured with Movement (median): 4.0
  VAS Score measured with Movement, % Reduction vs Placebo: 20.0%
[1]; 800 mg, ITT, 21-Hour
  VAS Score measured with Movement (median): 3.8
  VAS Score measured with Movement, % Reduction vs Placebo: 22.4%
[1]; 800 mg, ITT, 24-Hour
  VAS Score measured with Movement (median): 3.7
  VAS Score measured with Movement, % Reduction vs Placebo: 17.8%
[1]; 800 mg, ITT, 27 Hour
  VAS Score measured with Movement (median): 3.6
  VAS Score measured with Movement, % Reduction vs Placebo: 18.2%
[1]; 800 mg, ITT, 30-Hour
  VAS Score measured with Movement (median): 3.5
[1]; 800 mg, ITT, 33-Hour
  VAS Score measured with Movement (median): 3.5
  VAS Score measured with Movement, % Reduction vs Placebo: 7.9%
[1]; 800 mg, ITT, 36-Hour
  VAS Score measured with Movement (median): 3.5
[1]; 800 mg, ITT, 39-Hour
  VAS Score measured with Movement (median): 3.7
  VAS Score measured with Movement, % Reduction vs Placebo: -5.7%
[1]; 800 mg, ITT, 42-Hour
  VAS Score measured with Movement (median): 3.3
  VAS Score measured with Movement, % Reduction vs Placebo: 2.9%
[1]; 800 mg, ITT, 45-Hour
  VAS Score measured with Movement (median): 2.7
[1]; 800 mg, ITT, 48-Hour
  VAS Score measured with Movement (median): 2.1
  VAS Score measured with Movement, % Reduction vs Placebo: 8.7%
[2]; AT
  Morphine Requirement, LS Means Difference (95% CI): −16.6 (−24.7, −8.4)
  decrease in the mean morphine used in the postoperative period: 30.9%
  Morphine Requirement, LS Means (SE): 44.3 (5.7)
  Morphine Requirement, Mean (SD): 41.1 (27.3)
  Morphine Requirement, Median: 38.0
[2]; EEP
  Morphine Requirement, LS Means Difference (95% CI): −18.1 (−27.2, −9.0)
  Morphine Requirement, LS Means (SE): 43.7 (5.9)
  Morphine Requirement, Mean (SD): 43.7 (26.9)
  Morphine Requirement, Median: 40.5
[2]; ITT
  Morphine Requirement, LS Means Difference (95% CI): −16.4 (−24.6, −8.1)
  decrease in the mean morphine used in the postoperative period: 30.3%
  Morphine Requirement, LS Means (SE): 45.2 (5.8)
  Morphine Requirement, Mean (SD): 41.9 (26.9)
  Morphine Requirement, Median: 38.0
[2]; EPP
  decrease in the mean morphine used in the postoperative period: 33.3%
patients; all clinical studies conducted to date
  impact on key metabolic and hematologic parameters: no impact
patients; clinical trials, postoperative
  patients with at least one morphine side effect vs placebo: significantly fewer patients
patients; listed as IV Ibuprofen
  postoperative GI bleeding or renal complications: No postoperative GI bleeding or renal complications were seen
patients; listed as intravenous ibuprofen
  postoperative GI bleeding or renal complications: No bleeding or renal toxicity was reported
patients; vs placebo
  adverse event profile: comparable to placebo
[3]
  solubility in water: very poorly soluble in water
